According to ChEMBL document CHEMBL1201861, “Genomics of Drug Sensitity in Cancer screening data, Wellcome Trust Sanger Institute”:

Legend:
Experiment in all cases: cells
HO-1-N-1 = type: functional, cell-based, Homo sapiens; conditions: Homo sapiens, HO-1-N-1;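 further: growth inhibition of human HO-1-N-1 cells, read out with a cell viability assay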
Description: SANGER: Inhibition of human HO-1-N-1 cell growth in a cell viability assay.

YAPC = type: functional, cell-based, Homo sapiens; conditions: Homo sapiens, YAPC;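 further: growth inhibition of YAPC cells, measured with a cell viability assay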
Description: SANGER: Inhibition of human YAPC cell growth in a cell viability assay.

OE19 = type: functional, cell-based, Homo sapiens; conditions: Homo sapiens, OE19;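 further: growth inhibition of OE19 cells, measured through a cell viability read-out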
Description: SANGER: Inhibition of human OE19 cell growth in a cell viability assay.

CGTH-W-1 = type: functional, cell-based, Homo sapiens; conditions: Homo sapiens, CGTH-W-1;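 further: growth inhibition of human CGTH-W-1 cells measured by cell viability assay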
Description: SANGER: Inhibition of human CGTH-W-1 cell growth in a cell viability assay.

A204 = type: functional, cell-based, Homo sapiens; conditions: Homo sapiens, A204;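 further: growth inhibition of human A204 cells, read out with a cell viability assay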
Description: SANGER: Inhibition of human A204 cell growth in a cell viability assay.

ES7 = type: functional, cell-based, Homo sapiens; conditions: Homo sapiens, ES7;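 further: growth inhibition of cultured human ES7 cells, read out as cell viability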
Description: SANGER: Inhibition of human ES7 cell growth in a cell viability assay.

BV-173 = type: functional, cell-based; conditions: Homo sapiens
Description: SANGER: Inhibition of human BV-173 cell growth in a cell viability assay.

NCI-H1792 = type: functional, cell-based, Homo sapiens; conditions: Homo sapiens, NCI-H1792;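 further: growth inhibition of human NCI-H1792 cells, read out as cell viability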
Description: SANGER: Inhibition of human NCI-H1792 cell growth in a cell viability assay.

KYSE-410 = type: functional, cell-based, Homo sapiens; conditions: Homo sapiens, KYSE-410;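 further: growth inhibition of KYSE-410 cells, measured through a cell viability readout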
Description: SANGER: Inhibition of human KYSE-410 cell growth in a cell viability assay.

SW 954 = type: functional, cell-based, Homo sapiens; conditions: Homo sapiens, SW 954;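 further: growth inhibition of SW954 human cancer cells, read out as cell viability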
Description: SANGER: Inhibition of human SW954 cell growth in a cell viability assay.

HCC38 = type: functional, cell-based, Homo sapiens; conditions: Homo sapiens, HCC38;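 further: cell viability assay on the human HCC38 cell line, with IC50 marking the concentration that inhibits cell growth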
Description: SANGER: Inhibition of human HCC38 cell growth in a cell viability assay.

MKN-45 = type: functional, cell-based, Homo sapiens; conditions: Homo sapiens, MKN-45;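 further: growth inhibition of human MKN-45 cells, measured with a cell viability assay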
Description: SANGER: Inhibition of human MKN45 cell growth in a cell viability assay.

SK-MEL-30 = type: functional, cell-based; conditions: Homo sapiens;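 further: growth inhibition of SK-MEL-30 cells, determined with a cell viability assay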
Description: SANGER: Inhibition of human SK-MEL-30 cell growth in a cell viability assay.

Huh-7 = type: functional, cell-based, Homo sapiens; conditions: Homo sapiens, Huh-7;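 further: HuH-7 cell growth inhibition, read out with a cell viability assay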
Description: SANGER: Inhibition of human HuH-7 cell growth in a cell viability assay.

ABC-1 = type: functional, cell-based, Homo sapiens; conditions: Homo sapiens, ABC-1;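 further: growth inhibition of human ABC-1 cells, read out by a cell viability assay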
Description: SANGER: Inhibition of human ABC-1 cell growth in a cell viability assay.

DSH1 = type: functional, cell-based, Homo sapiens; conditions: Homo sapiens, DSH1;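 further: growth inhibition of human DSH1 cells, measured with a cell viability readout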
Description: SANGER: Inhibition of human DSH1 cell growth in a cell viability assay.

K5 = type: functional, cell-based, Homo sapiens; conditions: Homo sapiens, K5
Description: SANGER: Inhibition of human K5 cell growth in a cell viability assay.

COLO-678 = type: functional, cell-based, Homo sapiens; conditions: Homo sapiens, COLO-678
Description: SANGER: Inhibition of human COLO-678 cell growth in a cell viability assay.

HCT-116 = type: functional, cell-based, Homo sapiens; conditions: Homo sapiens, HCT-116
Description: SANGER: Inhibition of human HCT-116 cell growth in a cell viability assay.

NH-12 = type: functional, cell-based, Homo sapiens; conditions: Homo sapiens, NH-12;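 further: growth inhibition of NH-12 cells, read out with a cell viability assay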
Description: SANGER: Inhibition of human NH-12 cell growth in a cell viability assay.

HN = type: functional, cell-based, Homo sapiens; conditions: Homo sapiens, HN
Description: SANGER: Inhibition of human HN cell growth in a cell viability assay.

LB1047-RCC = type: functional, cell-based, Homo sapiens; conditions: Homo sapiens, LB1047-RCC;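 further: inhibition of cell growth, determined with a cell viability assay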
Description: SANGER: Inhibition of human LB1047-RCC cell growth in a cell viability assay.

BB49-HNC = type: functional, cell-based, Homo sapiens; conditions: Homo sapiens, BB49-HNC;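 further: cell viability assay read-out, reported as inhibition of BB49-HNC cell growth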
Description: SANGER: Inhibition of human BB49-HNC cell growth in a cell viability assay.

KINGS-1 = type: functional, cell-based, Homo sapiens; conditions: Homo sapiens, KINGS-1;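 further: cell viability assay measuring suppression of KINGS-1 cell growth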
Description: SANGER: Inhibition of human KINGS-1 cell growth in a cell viability assay.

U-87 MG = type: functional, cell-based, U-87MG ATCC; conditions: Homo sapiens;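 further: growth inhibition of the cells measured with a viability assay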
Description: SANGER: Inhibition of human U-87-MG cell growth in a cell viability assay.

NCI-H526 = type: functional, cell-based; conditions: Homo sapiens;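 further: growth inhibition of the human NCI-H526 cell line, measured by a cell viability assay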
Description: SANGER: Inhibition of human NCI-H526 cell growth in a cell viability assay.

DOHH-2 = type: functional, cell-based; conditions: Homo sapiens;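 further: growth inhibition of human DOHH-2 cells, read out with a cell viability assay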
Description: SANGER: Inhibition of human DOHH-2 cell growth in a cell viability assay.

KM-H2 = type: functional, cell-based; conditions: Homo sapiens;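 further: growth inhibition of KM-H2 cells, read out by a cell viability assay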
Description: SANGER: Inhibition of human KM-H2 cell growth in a cell viability assay.

KU-19-19 = type: functional, cell-based, Homo sapiens; conditions: Homo sapiens, KU-19-19
Description: SANGER: Inhibition of human KU-19-19 cell growth in a cell viability assay.

MHH-ES-1 = type: functional, cell-based, Homo sapiens; conditions: Homo sapiens, MHH-ES-1;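 further: cell growth inhibition measured by a cell viability assay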
Description: SANGER: Inhibition of human MHH-ES-1 cell growth in a cell viability assay.

OVCAR-3 = type: functional, cell-based, Homo sapiens; conditions: Homo sapiens, OVCAR-3;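 further: growth inhibition of human OVCAR-3 cells, determined by a cell viability assay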
Description: SANGER: Inhibition of human OVCAR-3 cell growth in a cell viability assay.

SK-PN-DW = type: functional, cell-based; conditions: Homo sapiens;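 further: growth inhibition measured with a viability assay on these cells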
Description: SANGER: Inhibition of human SK-PN-DW cell growth in a cell viability assay.

RH-1 = type: functional, cell-based, Homo sapiens; conditions: Homo sapiens, RH-1;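 further: growth inhibition of human RH-1 cells, read out with a cell viability assay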
Description: SANGER: Inhibition of human RH-1 cell growth in a cell viability assay.

NCI-H1650 = type: functional, cell-based, Homo sapiens; conditions: Homo sapiens, NCI-H1650;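 further: growth inhibition of human NCI-H1650 cells measured by a cell viability assay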
Description: SANGER: Inhibition of human NCI-H1650 cell growth in a cell viability assay.

TYK-nu = type: functional, cell-based, Homo sapiens; conditions: Homo sapiens, TYK-nu;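 further: growth inhibition of human TYK-nu cells, read out by a cell viability assay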
Description: SANGER: Inhibition of human TYK-nu cell growth in a cell viability assay.

CWR22R = type: functional, cell-based, Homo sapiens; conditions: Homo sapiens, 22Rv1;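 further: growth inhibition of 22Rv1 cells, read out with a cell viability assay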
Description: SANGER: Inhibition of human 22RV1 cell growth in a cell viability assay.

SW756 = type: functional, cell-based, Homo sapiens; conditions: Homo sapiens, SW756;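 further: growth inhibition of human SW756 cells, read out with a cell viability assay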
Description: SANGER: Inhibition of human SW756 cell growth in a cell viability assay.

COLO-829 = type: functional, cell-based, Homo sapiens; conditions: Homo sapiens, COLO-829
Description: SANGER: Inhibition of human COLO-829 cell growth in a cell viability assay.

MLMA = type: functional, cell-based, Homo sapiens; conditions: Homo sapiens, MLMA;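 further: growth inhibition of MLMA cells (human), determined through a cell viability readout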
Description: SANGER: Inhibition of human MLMA cell growth in a cell viability assay.

HGC-27 = type: functional, cell-based, Homo sapiens; conditions: Homo sapiens, HGC-27;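 further: growth inhibition of human HGC-27 cells, read out in a cell viability assay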
Description: SANGER: Inhibition of human HGC-27 cell growth in a cell viability assay.

MFE-280 = type: functional, cell-based, Homo sapiens; conditions: Homo sapiens, MFE-280;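 further: growth inhibition of MFE-280 cells, determined with a cell viability readout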
Description: SANGER: Inhibition of human MFE-280 cell growth in a cell viability assay.

GI-1 = type: functional, cell-based, Homo sapiens; conditions: Homo sapiens, GI-1;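 further: growth inhibition of human GI-1 cells, measured with a cell viability readout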
Description: SANGER: Inhibition of human GI-1 cell growth in a cell viability assay.

ACN = type: functional, cell-based, Homo sapiens; conditions: Homo sapiens, ACN;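 further: growth inhibition of the human ACN cell line, read out via cell viability testing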
Description: SANGER: Inhibition of human ACN cell growth in a cell viability assay.

OMC-1 = type: functional, cell-based, Homo sapiens; conditions: Homo sapiens, OMC-1;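 further: growth inhibition of the OMC-1 cell line, measured by a cell viability assay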
Description: SANGER: Inhibition of human OMC-1 cell growth in a cell viability assay.

NB10 = type: functional, cell-based, Homo sapiens; conditions: Homo sapiens, NB10;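 further: growth inhibition of NB10 cells, read out by a cell viability assay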
Description: SANGER: Inhibition of human NB10 cell growth in a cell viability assay.

MFM-223 = type: functional, cell-based, Homo sapiens; conditions: Homo sapiens, MFM-223
Description: SANGER: Inhibition of human MFM-223 cell growth in a cell viability assay.

T-24 = type: functional, cell-based, Homo sapiens; conditions: Homo sapiens, T-24;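 further: growth inhibition of T-24 cells, read out with a cell viability assay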
Description: SANGER: Inhibition of human T-24 cell growth in a cell viability assay.

COLO-792 = type: functional, cell-based, Homo sapiens; conditions: Homo sapiens, COLO-792
Description: SANGER: Inhibition of human COLO-792 cell growth in a cell viability assay.

NCI-H2347 = type: functional, cell-based, Homo sapiens; conditions: Homo sapiens, NCI-H2347;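 further: growth inhibition of the cell line, read out with a cell viability assay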
Description: SANGER: Inhibition of human NCI-H2347 cell growth in a cell viability assay.

HuTu80 = type: functional, cell-based, Homo sapiens, HUTU-80; conditions: Homo sapiens, HuTu80;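 further: growth inhibition of HuTu80 human cells, determined with a cell viability readout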
Description: SANGER: Inhibition of human HUTU-80 cell growth in a cell viability assay.

Measured: IC50

CN(Cc1cnc2nc(N)nc(N)c2n1)c1ccc(C(=O)N[C@@H](CCC(=O)O)C(=O)O)cc1 [METHOTREXATE]
6.35 nM: BV-173
148 nM: ES7
96.5 nM: MLMA
114 nM: NCI-H1792
59.8 nM: K5
107 nM: MHH-ES-1
> 200 nM: HO-1-N-1 | YAPC | OE19 | A204 | KYSE-410 | SW 954 | HCC38 | MKN-45 | SK-MEL-30 | Huh-7 | ABC-1 | DSH1 | COLO-678 | HCT-116 | NH-12 | HN | LB1047-RCC | BB49-HNC | KINGS-1 | U-87 MG | KM-H2 | KU-19-19 | OVCAR-3 | SK-PN-DW | RH-1 | NCI-H1650 | CWR22R | SW756 | COLO-829 | HGC-27 | MFE-280 | GI-1 | ACN | OMC-1 | NB10 | MFM-223 | T-24 | COLO-792 | NCI-H2347
0.691 nM: NCI-H526
31.2 nM: CGTH-W-1
21.6 nM: DOHH-2
197 nM: TYK-nu

Cn1cc(C2=C(c3ccc(Cl)cc3Cl)C(=O)NC2=O)c2ccccc21 [SB-216763]
48.9 nM: NCI-H526
1540 nM: K5
> 10000 nM: HO-1-N-1 | YAPC | OE19 | CGTH-W-1 | A204 | ES7 | BV-173 | NCI-H1792 | KYSE-410 | SW 954 | HCC38 | MKN-45 | SK-MEL-30 | Huh-7 | ABC-1 | DSH1 | COLO-678 | HCT-116 | NH-12 | HN | LB1047-RCC | BB49-HNC | KINGS-1 | U-87 MG | DOHH-2 | KM-H2 | KU-19-19 | MHH-ES-1 | OVCAR-3 | SK-PN-DW | RH-1 | NCI-H1650 | TYK-nu | CWR22R | COLO-829 | MLMA | HGC-27 | MFE-280 | GI-1 | ACN | NB10 | HuTu80 | MFM-223 | T-24 | COLO-792 | NCI-H2347
